Patent US20080027010A1, “Treatment of refractory cancers using Na+/K+-ATPase inhibitors” (Bionaut Pharmaceuticals, Inc., priority 2004, published 2008)
“Also recorded” adds a separate entry of the source.

Legend:
[1] = test system: A549 Sentinel Line; assay: Sentinel Line beta-galactosidase reporter assay (FACS, FDG loading); type: cell-based, human; conditions: 40 hrs; mitoxantrone 8 nM, paclitaxel 1.5 nM, carboplatin 15 μM, Iressa 4 μM
Method: The expression level of beta-galactosidase gene in sentinel lines was determined by using a fluorescent substrate fluorescein di-β-D-Galactopyranside (FDG, Marker Gene Tech, #M0250) introduced into cells by hypotonic shock. Cleavage by beta-galactosidase results in the production of free fluorescein, which is unable to cross the plasma membrane and is trapped inside the beta-gal positive cells. Briefly, the cells to be analyzed are trypsinized, and resuspended in PBS containing 2 mM FDG (diluted from a 10 mM stock prepared in 8:1:1 mixture of water:ethanol:DMSO). The cells were then shocked for 4 minutes at 37° C. and transferred to FACS tubes containing cold 1×PBS on ice. Samples were kept on ice for 30 minutes and analyzed by FACS in FL1 channel.
Sentinel Line cells with beta-galactosidase reporter gene were plated at 1×10^5 cells/10 cm dish. […] After 40 hrs, the cells were trypsinized and the expression level of reporter gene was determined by FDG loading.
The reporter activity was measured by FACS analysis.

[2] = test system: Na/K-ATPase; conditions: cited from earlier work
[3] = test system: VEGF; assay: VEGF secretion in tumor cells; type: cell-based; conditions: FIG. 8
[4] = test system: several different cancer cell lines; assay: Proliferation of several different cancer cell lines; type: cell-based
[5] = test system: HIF-1α; assay: HIF-1α Western blot in human tumor cells under hypoxia; type: cell-based
Method: For HIF1-alpha Western blots, Hep3B cells were seeded in growth medium at a density of 7×10^6 cells per 100 mm dish. […] Samples were fractionated on 3-8% Tris-Acetate gel (Invitrogen NUPAGE system) by sodium dodecyl sulfate (SDS)-polyacrylamide gel electropherosis and transferred onto nitrocellulose membrane. […] Anti-Beta-actin monoclonal antibody (Abcam, ab6276-100) was used at a 1:5000 dilution with a 30-minute incubation at room temperature.
The cells were placed in hypoxic conditions for 4 hours for HIF1-alpha accumulation.
The cells were lysed and proteins were resolved by SDS-PAGE and transferred to a nylon membrane. The membrane was immunoblotted with anti-HIF-1α and anti-HIF1β MAb, and anti-beta-actin antibodies.
HIF-1α and β-actin protein level was determined by western blotting.

[6] = test system: HIF-1α; assay: HIF-1α induced under normoxia by PHD inhibitor L-mimosone in Hep3B cells, Western blot; type: cell-based, human
Method: Abundance of HIF-1α and β-actin was determined by western blotting.

[7] = test system: Panc-1 human pancreatic xenograft; assay: Panc-1 human pancreatic tumor xenograft in nude mice; type: in vivo; conditions: Panc-1 xenografts in nude mice; FIGS. 16, 17, 22
Method: The control animals received pumps containing vehicle (50% DMSO in DMEM). The mice treated with standard chemotherapy agent received intra-peritoneal injections of Gemcitabine at 40 mg/kg every 3 days for 4 treatments (q3d×4). Each data point represent average tumor weight (n=8) and error bars indicate SEM.

[8] = test system: Caki-1 human renal cancer xenograft; type: in vivo; conditions: xenografted Caki-1 human renal tumors in nude mice; FIG. 23
Text: Female nude mice (nu/nu) between 5 and 6 weeks of age weighing approximately 20 g were implanted subcutaneously (s.c.) by trocar with fragments of human tumors harvested from s.c. grown tumors in nude mice hosts. […] Each group contains 8-10 mice, each of which was ear tagged and followed throughout the experiment.
The administration of drugs or controls began the day the animals were pair-matched (Day 1). […] Mice were weighed and tumor measurements were obtained using calipers twice weekly, starting Day 1. These tumor measurements were converted to mg tumor weight by standard formula, (W^2×L)/2. The experiment is terminated when the control group tumor size reached an average of about 1 gram. Upon termination, the mice were weighed, sacrificed and their tumors excised. The tumors were weighed and the mean tumor weight per group was calculated.

[9] = mice
[10] = cited from earlier work
[11] = cited from earlier work; remark: listed apart in the source

For `O=C1c2c(O)ccc(O)c2C(=O)c2c(NCCNCCO)ccc(NCCNCCO)c21` [mitoxanthrone, mitoxantrone], the “cell death and reporter activity in Sentinel Lines” value (“cell death and reporter activity” for short) [1] was “increases in cell death and reporter activity”.

With `CC(=O)O[C@H]1C(=O)[C@@]2(C)[C@H]([C@H](OC(=O)c3ccccc3)[C@]3(O)C[C@H](OC(=O)[C@H](O)[C@@H](NC(=O)c4ccccc4)c4ccccc4)C(C)=C1C3(C)C)[C@]1(OC(C)=O)CO[C@@H]1C[C@@H]2O` [paclitaxel] the “cell death and reporter activity” value [1] was “increases in cell death and reporter activity”.

With `COc1cc2ncnc(Nc3ccc(F)c(Cl)c3)c2cc1OCCCN1CCOCC1` [Iressa] the “cell death and reporter activity” value [1] was “reduction in reporter activity”.

In the case of `C[C@H]1O[C@@H](O[C@H]2[C@@H](O)C[C@H](O[C@H]3[C@@H](O)C[C@H](O[C@H]4CC[C@@]5(C)[C@H](CC[C@@H]6[C@@H]5C[C@@H](O)[C@]5(C)[C@@H](C7=CC(=O)OC7)CC[C@]65O)C4)O[C@@H]3C)O[C@@H]2C)C[C@H](O)[C@@H]1O` [Digoxin], the “order of Na/K-ATPase-inhibition” value [2] is listed as “Ouabain<Digoxin<Proscillaridin”.

With `C[C@@H]1O[C@@H](O[C@H]2C[C@@H](O)[C@]3(CO)[C@H]4[C@H](O)C[C@]5(C)[C@@H](C6=CC(=O)OC6)CC[C@]5(O)[C@@H]4CC[C@]3(O)C2)[C@H](O)[C@H](O)[C@H]1O` [BNC-1, ouabain] the “secretion of the angiogenesis factor VEGF” value [3] was “directly or indirectly inhibits”, the “decrease of concentration effective for inhibiting proliferation of cancer cells” value ([4]; combination with steroid signal modulator (Casodex)) was 5 fold and the IC50 ([4]; proliferation of cancer cell lines, read-out: IC50 across several different cancer cell lines) was 80 to 300 nM. The “order of Na/K-ATPase-inhibition” value [2] was “Ouabain<Digoxin<Proscillaridin”.

In the case of `C[C@@H]1OC(OC2C=C3CCC4C5=CC[C@H](c6ccc(=O)oc6)[C@@]5(C)CCC4[C@@]3(C)CC2)[C@H](O)[C@H](O)[C@H]1O` (stereo partly drawn) [BNC-151], the HIF-1α expression ([5]; 1 μM) is reported as “Significant inhibition of HIF-1α expression”.

In the case of `C[C@@H]1OC(OC2C=C3CCC4C(CC[C@]5(C)[C@@H](c6ccc(=O)oc6)CC[C@]45O)[C@@]3(C)CC2)[C@H](O)[C@H](O)[C@H]1O` (stereo partly drawn) [BNC-4, proscillaridin], the HIF-1α expression ([5]; 0.1 μM) is reported as “completely inhibits HIF-1α expression”, the HIF-1α expression ([5]; 1 μM) is reported as “completely inhibits HIF-1α expression” and the HIF-1α accumulation ([6]; 200 μM L-mimosone for 18 h) is reported as “blocks HIF-1α induction; also recorded: eliminated HIF-1α accumulation”. For the same compound, the HIF-1α accumulation ([6]; L-mimosone, low concentration tested) was “did not appear to have an effect”, the “secretion of the angiogenesis factor VEGF” value [3] was “directly or indirectly inhibits” and the tumor growth [7] was “significantly reduce tumor growth”. The tumor growth [8] was “significantly reduce tumor growth”, the “serum level corresponding to maximum toxic dose (MTD)” value [9] was “about 518 (±121) ng/ml” and the “toxic serum concentration at day 1” value ([9]; steady state delivery) was “about 518±121 ng/ml”. For the same compound, the “order of Na/K-ATPase-inhibition” value [2] was “Ouabain<Digoxin<Proscillaridin”, the “time of third plasma concentration peak” value ([10]; after dosing) was “about 10 hours” and the “influence of impaired kidney function on clearance” value ([10]; in vivo) was “no influence on clearance”. For the same compound, the “patients taken off treatment because of negative side effects” value ([11]; 1067 patients observed for up to 3 years) was 0.7%, the “doses producing typical cardiac glycoside intoxication symptoms” value ([11]; healthy individuals) was “above 4 mg p.o./d” and the “average level of side effects (nausea, seasickness, headache, vomiting, stomach cramps, diarrhea) in clinical reports” value ([11]; human, in vivo) was 5%. The “dose taken without any negative side effects” value ([11]; long-term medication of cardiac illnesses) was “up to 1.5 mg per day” and the “reported cases in which therapy could be resumed after a brief hiatus” value ([11]; review of 47 clinical studies) was greater than 95%.

In the case of `N.N.O=C([O-])C1(C(=O)[O-])CCC1.[Pt+2]` [Carboplatin], the “cell death and reporter activity” value [1] is reported as “increases in cell death and reporter activity”.
